Reference: patent US20240287022A1 (Merck Sharp & Dohme LLC, priority 2021, published 2024)

Target: recombinant IL4I1 (Homo sapiens (Human), UniProt Q96RQ9)
Experiment: IL4I1 Enzymatic Assay (Amplex Red/HRP coupled H2O2 detection)
Type: biochemical
Details: 1 nM IL4I1, 1 mM each Phe/Tyr/Trp, four-hour pre-incubation, 120 minutes reaction, top compound concentration of 10000 nM
Summary of the method: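 Recombinant IL4I1 (1 nM final) was pre-incubated 4 h at ambient temperature with compound in 50 mM Hepes pH 7.0, 0.005% Tween20. Reaction ran 120 min with 1 mM each Phe/Tyr/Trp, 0.05 mM Amplex Red and 1 U/mL HRP. Resorufin fluorescence (544/590 nm) was read, and EC50 fitted from ten-point 1:3 titrations (top 10000 nM) by four-parameter regression.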

Chain of recombinant IL4I1 (Q96RQ9 22-567): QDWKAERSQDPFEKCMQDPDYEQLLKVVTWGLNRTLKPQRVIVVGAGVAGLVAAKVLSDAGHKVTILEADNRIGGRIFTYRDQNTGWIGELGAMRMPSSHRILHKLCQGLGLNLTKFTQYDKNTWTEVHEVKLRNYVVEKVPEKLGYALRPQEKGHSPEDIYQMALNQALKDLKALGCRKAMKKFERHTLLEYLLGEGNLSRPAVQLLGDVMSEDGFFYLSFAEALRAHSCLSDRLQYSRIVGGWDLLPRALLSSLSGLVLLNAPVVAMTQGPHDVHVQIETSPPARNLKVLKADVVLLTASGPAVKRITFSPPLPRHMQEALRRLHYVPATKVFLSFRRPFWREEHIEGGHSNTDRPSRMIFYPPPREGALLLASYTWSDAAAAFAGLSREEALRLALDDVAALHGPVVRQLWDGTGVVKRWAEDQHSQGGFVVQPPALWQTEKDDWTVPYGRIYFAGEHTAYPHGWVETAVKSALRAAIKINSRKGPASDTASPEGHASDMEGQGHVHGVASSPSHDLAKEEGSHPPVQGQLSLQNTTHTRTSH

Row | Compound | EC50 [nM]
1 | O=c1[nH]c2ccncc2cc1Cc1ccc2ccccc2c1 [Example 115, 3-(naphthalen-2-ylmethyl)-1,6-naphthyridin-2(1H)-one] | 1.4
2 | N#CC1(c2cccc(Cc3cc4cnccc4[nH]c3=O)c2)CC1 [Example 116, 1-(3-((2-oxo-1,2-dihydro-1,6-naphthyridin-3-yl)methyl)phenyl)cyclopropane-1-carbonitrile] | 1.7
3 | O=c1[nH]c2ccncc2cc1Cc1cccc(OC(F)(F)F)c1 [Example 117, 3-(3-(trifluoromethoxy)benzyl)-1,6-naphthyridin-2(1H)-one] | 2.1
4 | O=C1NCc2ccc(Cc3cc4cnccc4[nH]c3=O)cc21 [Example 118, 3-((3-oxoisoindolin-5-yl)methyl)-1,6-naphthyridin-2(1H)-one] | 11.1
5 | COC(=O)Nc1ccc(Cc2cc3ccccc3[nH]c2=O)cc1 [Example 119, methyl (4-((2-oxo-1,2-dihydroquinolin-3-yl)methyl)phenyl)carbamate] | 16
6 | NS(=O)(=O)c1cccc(Cc2cc3cc(F)ccc3[nH]c2=O)c1 [Example 120, 3-((6-fluoro-2-oxo-1,2-dihydroquinolin-3-yl)methyl)benzenesulfonamide] | 3.6
7 | O=c1[nH]c2ccc(Cc3cc4ccccc4[nH]c3=O)cc2o1 [Example 121, 6-((2-oxo-1,2-dihydroquinolin-3-yl)methyl)benzo[d]oxazol-2(3H)-one] | 0.9
8 | O=C1COc2c(Cc3cc4ccccc4[nH]c3=O)cccc2N1 [Example 122, 8-((2-oxo-1,2-dihydroquinolin-3-yl)methyl)-2H-benzo[b][1,4]oxazin-3(4H)-one] | 6.6
9 | O=C1CCc2cc(Cc3cc4cc(F)ccc4[nH]c3=O)ccc2N1 [Example 123, 6-fluoro-3-((2-oxo-1,2,3,4-tetrahydroquinolin-6-yl)methyl)quinolin-2(1H)-one] | 3.7
10 | CC(=O)NCc1ccc(Cc2cc3ccccc3[nH]c2=O)cc1 [Example 124, N-(4-((2-oxo-1,2-dihydroquinolin-3-yl)methyl)benzyl)acetamide] | 3.5
11 | O=c1[nH]c2ccccc2cc1Cc1ccc(-c2cn[nH]c2)cc1 [Example 125, 3-(4-(1H-pyrazol-4-yl)benzyl)quinolin-2(1H)-one] | 6.1
12 | O=c1[nH]c2ccccc2cc1Cc1ccc(-c2cnccn2)c(F)c1 [Example 127, 3-(3-fluoro-4-(pyrazin-2-yl)benzyl)quinolin-2(1H)-one] | 2.1
13 | CC(=O)NCc1cccc(Cc2cc3ccccc3[nH]c2=O)c1 [Example 128, N-(3-((2-oxo-1,2-dihydroquinolin-3-yl)methyl)benzyl)acetamide] | 30.4
14 | O=c1[nH]c2ccccc2cc1Cc1ccc2c(c1)CCNC2 [Example 129, 3-((1,2,3,4-tetrahydroisoquinolin-6-yl)methyl)quinolin-2(1H)-one] | 13.6
15 | O=c1[nH]c2ccccc2cc1Cc1ccc2occc(=O)c2c1 [Example 130, 3-((4-oxo-4H-chromen-6-yl)methyl)quinolin-2(1H)-one] | 1.8
16 | Cc1cc(Cc2cc3ccccc3[nH]c2=O)cnc1-c1cccc(F)c1 [Example 131, 3-((6-(3-fluorophenyl)-5-methylpyridin-3-yl)methyl)quinolin-2(1H)-one] | 3.7
17 | O=c1[nH]c2ccccc2cc1Cc1ccc2nn[nH]c2c1 [Example 132, 3-((1H-benzo[d][1,2,3]triazol-6-yl)methyl)quinolin-2(1H)-one] | 18.6
18 | COc1cc(C#N)cc(Cc2cc3ccccc3[nH]c2=O)c1 [Example 133, 3-methoxy-5-((2-oxo-1,2-dihydroquinolin-3-yl)methyl)benzonitrile] | 2
19 | Cc1nc(C)c(Cc2cc3ccccc3[nH]c2=O)s1 [Example 134, 3-((2,4-dimethylthiazol-5-yl)methyl)quinolin-2(1H)-one] | 5.1
20 | O=c1[nH]c2ccccc2cc1Cc1cnn2c1CCC2 [Example 135, 3-((5,6-dihydro-4H-pyrrolo[1,2-b]pyrazol-3-yl)methyl)quinolin-2(1H)-one] | 11.3
21 | O=c1[nH]c2ccccc2cc1Cc1coc2ccccc12 [Example 136, 3-(benzofuran-3-ylmethyl)quinolin-2(1H)-one] | 0.5
22 | O=c1[nH]c2ccccc2cc1Cc1cnc(N2CCCCC2)s1 [Example 137, 3-((2-(piperidin-1-yl)thiazol-5-yl)methyl)quinolin-2(1H)-one] | 4.5
23 | O=c1[nH]c2ccccc2cc1Cc1cnc(-c2ccc(F)cc2)o1 [Example 138, 3-((2-(4-fluorophenyl)oxazol-5-yl)methyl)quinolin-2(1H)-one] | 36.9
24 | O=c1[nH]c2ccccc2cc1Cc1cnc(N2CCCC2)s1 [Example 139, 3-((2-(pyrrolidin-1-yl)thiazol-5-yl)methyl)quinolin-2(1H)-one] | 8.5
25 | O=c1[nH]c2ccccc2cc1Cc1cc(-c2ccccc2)no1 [Example 140, 3-((3-phenylisoxazol-5-yl)methyl)quinolin-2(1H)-one] | 23.4

Row | Compound | EC50 [nM]
26 | NS(=O)(=O)c1cccc(Cc2cc3ccccc3[nH]c2=O)c1 [Example 141, 3-((2-oxo-1,2-dihydroquinolin-3-yl)methyl)benzenesulfonamide] | 20.2
27 | Cn1c(=O)c(Cc2ccc(C(C)(C)O)cc2)cc2ccccc21 [Example 143, 3-(4-(2-hydroxypropan-2-yl)benzyl)-1-methylquinolin-2(1H)-one] | 2.6
28 | Cn1c(=O)c(Cc2cccc(OC(F)(F)F)c2)cc2ccccc21 [Example 144, 1-methyl-3-(3-(trifluoromethoxy)benzyl)quinolin-2(1H)-one] | 7.2
29 | N#CC1CC(Oc2ccc(Cc3cc4ccccc4[nH]c3=O)cc2)C1 (stereo not shown) [Example 146, 3-(4-((2-oxo-1,2-dihydroquinolin-3-yl)methyl)phenoxy)cyclobutane-1-carbonitrile] | 1.7
30 | N#CC1(c2ccc(Cc3cc4ccccc4[nH]c3=O)cc2)COC1 [Example 147, 3-(4-((2-oxo-1,2-dihydroquinolin-3-yl)methyl)phenyl)oxetane-3-carbonitrile] | 2.3
31 | CC(C)(C#N)n1cc(Cc2cc3ccccc3[nH]c2=O)cn1 [Example 148, 2-methyl-2-(4-((2-oxo-1,2-dihydroquinolin-3-yl)methyl)-1H-pyrazol-1-yl)propanenitrile] | 258
32 | O=C1COc2c(Cc3cc4cccc5c4n(c3=O)CCC5)cccc2N1 [Example 149, 8-((5-oxo-2,3-dihydro-1H,5H-pyrido[3,2,1-ij]quinolin-6-yl)methyl)-2H-benzo[b][1,4]oxazin-3(4H)-one] | 150
33 | CC(=O)Nc1ccc(Cc2cc3ccccc3[nH]c2=O)cn1 [Example 150, N-(5-((2-oxo-1,2-dihydroquinolin-3-yl)methyl)pyridin-2-yl)acetamide] | 16.9
34 | CC(=O)NCc1ccc(Cc2cc3ccccc3n(C)c2=O)cc1 [Example 151, N-(4-((1-Methyl-2-oxo-1,2-dihydroquinolin-3-yl)methyl)benzyl)acetamide] | 3.3
35 | O=c1[nH]c2ccccc2cc1Cc1ccc2ncccc2c1 [Example 152, 3-(Quinolin-6-ylmethyl)quinolin-2(1H)-one] | 5.3
36 | Cn1ncc2cc(Cc3cc4ccccc4[nH]c3=O)ccc21 [Example 153, 3-((1-methyl-1H-indazol-5-yl)methyl)quinolin-2(1H)-one] | 1.2
37 | O=C1CCc2cc(Cc3cc4ccccc4[nH]c3=O)ccc2N1 [Example 154, 3-((2-oxo-1,2,3,4-tetrahydroquinolin-6-yl)methyl)quinolin-2(1H)-one] | 5.4
38 | O=C1COc2ccc(Cc3cc4ccccc4[nH]c3=O)cc2N1 [Example 155, 6-((2-oxo-1,2-dihydroquinolin-3-yl)methyl)-2H-benzo[b][1,4]oxazin-3(4H)-one] | 2
39 | O=c1[nH]c2ccccc2cc1Cc1ccc2scnc2c1 [Example 156, 3-(benzo[d]thiazol-5-ylmethyl)quinolin-2(1H)-one] | 1.4
40 | O=c1[nH]c2ccccc2cc1Cc1ccc2nccnc2c1 [Example 157, 3-(quinoxalin-6-ylmethyl)quinolin-2(1H)-one] | 6.2
41 | O=c1[nH]c2ccccc2cc1Cc1cnn2ncccc12 [Example 158, 3-(pyrazolo[1,5-b]pyridazin-3-ylmethyl)quinolin-2(1H)-one] | 60.2
42 | O=C1CC[C@@H](c2ccc(Cc3cc4ccccc4[nH]c3=O)cc2)N1 [Example 159, (S)-3-(4-(5-oxopyrrolidin-2-yl)benzyl)quinolin-2(1H)-one] | 4.1
43 | CC(C)(O)c1ccc(Cc2cc3ccccc3[nH]c2=O)cc1 [Example 160, 3-(4-(2-Hydroxypropan-2-yl)benzyl)quinolin-2(1H)-one] | 6.3
44 | CC1(O)CC(c2ccc(Cc3cc4ccccc4[nH]c3=O)cc2)C1 (stereo not shown) [Example 161, 3-(4-(3-hydroxy-3-methylcyclobutyl)benzyl)quinolin-2(1H)-one] | 3.2
45 | Cn1cc2c(Cc3cc4cc(F)ccc4[nH]c3=O)cccc2n1 [Example 163, 6-fluoro-3-((2-methyl-2H-indazol-4-yl)methyl)quinolin-2(1H)-one] | 5.4
46 | Cc1c(Cc2ccccc2)c(=O)[nH]c2ccccc12 [Example 164, 3-Benzyl-4-methylquinolin-2(1H)-one] | 10000
47 | Cc1cc(Cc2cc3ccccc3[nH]c2=O)ccc1CNS(C)(=O)=O [Example 165, N-(2-methyl-4-((2-oxo-1,2-dihydroquinolin-3-yl)methyl)benzyl)methanesulfonamide] | 6.2
48 | CC(=O)NCc1ccc(Cc2cc3ccccc3[nH]c2=O)cc1F [Example 166, N-(2-fluoro-4-((2-oxo-1,2-dihydroquinolin-3-yl)methyl)benzyl)acetamide] | 2.7
49 | CC(=O)NCc1ccc(Cc2cc3ccccc3[nH]c2=O)c(F)c1 [Example 167, N-(3-fluoro-4-((2-oxo-1,2-dihydroquinolin-3-yl)methyl)benzyl)acetamide] | 4.9
